Source: patent US6489364B2, “Antiviral protease inhibitors” (priority 1997, dated 2002)
Values after ≈ are worked out from the molar mass of the structure shown. Where two headings read alike, the source gives them in different places.

Columns and labels:
purified HIV proteinase = target: T1, purified HIV proteinase (Human immunodeficiency virus type 1 group M subtype B, UniProt P04585); assay: biochemical
T1 construct: purified HIV proteinase
Protocol: Representative compounds were tested for HIV protease activity in a spectrophotometric enzyme assay using the chromogenic substrate His-Lys-Ala-Arg-Val-Leu-p-nitro-Phe-Glu-Ala-Nle-Ser-amide and purified HIV proteinase. The rate of cleavage is followed by continuously registering the change in absorbance at 300 nm. […]

HIV-1 = HIV-1 infected MT4 cell culture, XTT assay; format: cell-based
Protocol: Compounds are also tested for HIV protease activity in cell culture. MT4 cells grown in RPMI 1640 cell culture medium including 10% fetal calf serum are infected with 10 TCID HIV-1 per 2×10^5 cells and cultured for 6 days. XTT is added and the amount of XTT formazan produced in the following 6 hours represents the number of surviving cells. Results are expressed as the ED50, that is the concentration in μg/ml of the compound of the invention which suppresses viral replication by 50%.

[1] = values in parentheses, affinity constant, read-out: (Ki μM)
[2] = Human immunodeficiency virus 1, 144 h, second part of Table 1, head EC50, MT4 cells, HIV-1, 6 days, XTT, read-out: EC50
[3] = Human immunodeficiency virus 1, MT4, 144 h

Row | Compound | Ki (purified HIV proteinase; [1]) [nM] | EC50 (HIV-1; [2]) [µg/mL] | also measured
1 | CNC(=O)[C@@H](NC(=O)[C@H](OCc1ccccc1)[C@H](O)[C@@H](O)[C@@H](OCc1ccccc1)C(=O)N[C@H](C(=O)NC)C(C)C)C(C)C [Example 1, N1,N6-di[(1S)-2-methyl-1-(methylcarbamoyl)propyl]-(2R,3R,4R,5R)-2,5-di(benzyloxy)-3,4-dihydroxyhexanediamide] | – | – | IC50 (purified HIV proteinase): 15 nM
2 | CNC(=O)C(NC(=O)C(CC(O)C(OCc1ccccc1)C(=O)NC(C(=O)NC)C(C)C)OCc1ccccc1)C(C)C [Example 3, N1,N6-di[(1S)-2-methyl-1-(methylcarbamoyl)propyl]-(2R,3R,5R)-2,5-di(benzaloxy)-3-hydroxyhexanediamide] | – | – | IC50 (purified HIV proteinase; values printed without parentheses, concentration inhibiting enzyme performance by 50%): 4 nM
3 | CCC(C)[C@H](NC(=O)[C@H](OCc1ccccc1)[C@H](O)[C@@H](O)[C@@H](OCc1ccccc1)C(=O)N[C@H](C(=O)NC)C(C)CC)C(=O)NC (stereo partly drawn) [Example 4, N1,N6-di[(1S)-2-methyl-1-(methylcarbamoyl)butyl]-(2R,3R,4R,5R)-2,5-di(benzyloxy)-3,4-dihydroxyhexanediamide] | 9 | – | –
4 | CNC(=O)[C@@H](NC(=O)[C@H](OCc1ccc(F)cc1)[C@H](O)[C@@H](O)[C@@H](OCc1ccc(F)cc1)C(=O)N[C@H](C(=O)NC)C(C)C)C(C)C [Example 7, N1,N6-di[(1S)-2-methyl-1-(methylcarbamoyl)propyl]-(2R,3R,4R,5R)-2,5-di[(4-fluorobenzyl)oxy]-3,4-dihydroxyhexanediamide] | 2.3 | – | –
5 | CC(C)C(NC(=O)C(OCc1ccccc1)C(O)C(O)C(OCc1ccccc1)C(=O)NC(C(=O)NC1CC1)C(C)C)C(=O)NC1CC1 [Example 8, N1,N6-di[(1S)-2-methyl-1-(cyclopropylcarbamoyl)propyl]-(2R,3 R,4R,5R)-25-di(benzyloxy)-3,4-dihydroxyhexanediamide] | 3.4 | – | –
6 | CNC(=O)[C@@H](NC(=O)[C@H](OCc1ccccc1C)[C@H](O)[C@@H](O)[C@@H](OCc1ccccc1C)C(=O)N[C@H](C(=O)NC)C(C)C)C(C)C [Example 9, N1,N6-di[(1S)-2-methyl-1-(methylcarbamoyl)propyl]-(2R,3R,4R,5R)-2,5-di[(2-methylbenzyl)oxy]-3,4-dihydroxyhexanediamide] | 3.5 | – | –
7 | O=C(NC1c2ccccc2CC1O)C(OCc1ccccc1)C(O)C(O)C(OCc1ccccc1)C(=O)NC1c2ccccc2CC1O [Example 10, N1,N6-di[(1S,2R)-2-hydroxy-2,3-dihydro-1H-1-indenyl]-(2R,3R,4R,5R)-2.5-di(benzyloxy)-3,4-dihydroxyhexanediamide] | – | – | Ki (purified HIV proteinase): 1.6 nM
8 | CNC(=O)C(NC(=O)C(OCc1ccccc1)C(O)C(O)C(OCc1ccccc1)C(=O)NC1c2ccccc2CC1O)C(C)C [Example 11, N1-[(1S,2R)-2-hydroxy-2,3-dihydro-1H-1-indenyl]-N6-[(1S)-2-methyl-1-(methylcarbamoyl)propyl]-(2R,3R,4R,5R,)-2,5-di(benzyloxy)-3,4-dihydroxyhexanediamide] | 1.2 | 0.2 (≈ 0.316 µM) | –
9 | O=C(N[C@H]1c2ccccc2C[C@H]1O)[C@H](OCc1ccccc1F)[C@H](O)[C@@H](O)[C@@H](OCc1ccccc1F)C(=O)N[C@H]1c2ccccc2C[C@H]1O [Example 12, N1,N6-di[(1S,2R)-2-hydroxy-2,3-dihydro-1H-1-indenyl]-(2R,3R,4R,5R)-2,5-di(2-fluorobenzyloxy)-3,4-dihydroxyhexanediamide] | 0.13 | 0.04 (≈ 0.0581 µM) | –
10 | O=C(N[C@H]1c2ccccc2C[C@H]1O)[C@H](OCc1ccc(F)cc1)[C@H](O)[C@@H](O)[C@@H](OCc1ccc(F)cc1)C(=O)N[C@H]1c2ccccc2C[C@H]1O [Example 13, N1,N6-di[(1S,2R)-2-hydroxy-2,3-dihydro-1H-1-indenyl]-(2R,3R,4R,5R)-2,5-di(4-fluorobenzyloxy)-3,4-dihydroxyhexanediamide] | 0.07 | 0.2 (≈ 0.29 µM) | –
11 | CNC(=O)C(NC(=O)C(OCc1ccc(-c2ccccc2)cc1)C(O)C(O)C(OCc1ccc(-c2ccccc2)cc1)C(=O)NC(C(=O)NC)C(C)C)C(C)C [Example 14, N1,N6-di[(1S)-2-methyl-1-(methylcarbamoylpropyl]-(2R,3R,4R,5R)-2,5-di[(4-phenylbenzyl)oxy]-3,4-dihydroxyhexanediamide] | – | – | Ki (purified HIV proteinase): 0.67 nM; EC50 (HIV-1; [3]): 0.04 µg/mL (≈ 0.0522 µM)
12 | CNC(=O)[C@@H](NC(=O)[C@H](OCc1ccc(-c2ccsc2)cc1)[C@H](O)[C@@H](O)[C@@H](OCc1ccc(-c2ccsc2)cc1)C(=O)N[C@H](C(=O)NC)C(C)C)C(C)C [Example 15, N1,N6-di[(1S)-2-methyl-1-(methylcarbamoyl)propyl]-(2R,3R,4R,5R)-2,5-di[4-(3-thienyl)benzyloxy]-3,4-dihydroxyhexanediamide] | – | – | Ki (purified HIV proteinase): 1.2 nM; EC50 (HIV-1; [3]): 0.03 µg/mL (≈ 0.0385 µM)
13 | CNC(=O)[C@@H](NC(=O)[C@H](OCc1ccccc1)[C@H](O)[C@@H](O)[C@@H](OCc1ccccc1)C(=O)N[C@H](C(=O)NC)c1ccccc1)c1ccccc1 [Example 16, N1,N6-di[(1S)-1-phenyl-1-(methylcarbamoyl)methyl]-(2R,3R,4R,5R)-2,5-di(benzyloxy)-3,4-dihydroxyhexanediamide] | – | – | Ki (purified HIV proteinase; read-out: (Ki μM)): 2.3 nM; EC50 (HIV-1; [3]): 1 µg/mL (≈ 1.46 µM)
14 | CNC(=O)C(NC(=O)C(OCc1cccc(F)c1)C(O)C(O)C(OCc1cccc(F)c1)C(=O)NC(C(=O)NC)C(C)C)C(C)C (stereo not shown) [Example 17] | 2 | 0.8 (≈ 1.23 µM) | –
15 | O=C(N[C@H]1c2ccccc2C[C@H]1O)[C@H](OCc1cccc(F)c1)[C@H](O)[C@@H](O)[C@@H](OCc1cccc(F)c1)C(=O)N[C@H]1c2ccccc2C[C@H]1O [Example 18, N1,N6-di[(1 S,2R)-2-hydroxy-2,3-dihydro-1H-1-indenyl]-(2R,3R,4R,5R)-2,5-di(3-fluorobenzyloxy)-3,4-dihydroxyhexanediamide] | 50 | 0.5 (≈ 0.726 µM) | –
16 | CNC(=O)C(NC(=O)C(OCc1ccccc1F)C(O)C(O)C(OCc1ccccc1F)C(=O)NC(C(=O)NC)C(C)C)C(C)C [Example 19, N1,N6-di[(1S)-2-methyl-1-(methylcarbamoyl)propyl]-(2R,3R,4R,5R)-2,5-di[4-(2-fluorobenzyl)oxy]-3,4-dihydroxyhexanediamide] | 0.5 | 0.8 (≈ 1.23 µM) | –
17 | CNC(=O)C(NC(=O)C(OCc1ccc(F)cc1F)C(O)C(O)C(OCc1ccc(F)cc1F)C(=O)NC(C(=O)NC)C(C)C)C(C)C [Example 20, N1,N6-di[(1S)-2-methyl-1-(methylcarbamoyl)propyl]-(2R,3R,4R,5R)-2,5-di[4-(2,4-difluorobenzyl)oxy]-3,4-dihydroxyhexanediamide] | 0.1 | 0.9 (≈ 1.31 µM) | –
18 | O=C(N[C@H]1c2ccccc2C[C@H]1O)[C@H](OCc1ccc(F)cc1F)[C@H](O)[C@@H](O)[C@@H](OCc1ccc(F)cc1F)C(=O)N[C@H]1c2ccccc2C[C@H]1O [Example 21, N1,N6-di[(1S,2R)-2-hydroxy-2,3-dihydro-1H-1-indenyl]-(2R,3R,4R,5R)-2,5-di(2,4-difluorobenzyloxy)-3,4-dihydroxyhexanediamide] | 0.38 | 0.1 (≈ 0.138 µM) | –
19 | CNC(=O)C(NC(=O)C(OCc1ccc(-c2ccccn2)cc1)C(O)C(O)C(OCc1ccc(-c2ccccn2)cc1)C(=O)NC(C(=O)NC)C(C)C)C(C)C [Example 22, N1,N6-di[(1S)-2-methyl-1-(methylcarbamoyl)propyl]-(2R,3R,4R,5R)-2.5-di[4-(2-pyridyl)benzyloxy]-3,4-dihydroxyhexanediamide] | – | – | Ki (purified HIV proteinase): 0.61 nM; EC50 (HIV-1; [3]): 0.4 µg/mL (≈ 0.52 µM)
20 | CNC(=O)[C@@H](NC(=O)[C@H](OCc1ccc(-c2cccc([N+](=O)[O-])c2)cc1)[C@H](O)[C@@H](O)[C@@H](OCc1ccc(-c2cccc([N+](=O)[O-])c2)cc1)C(=O)N[C@H](C(=O)NC)C(C)C)C(C)C [Example 24, N1,N6-di[(1S)-2-methyl-1-(methylcarbamoyl)propyl]-(2R,3R,4R,5R)-2,5-di[(4-(3-nitrophenyl)benzyl)oxy]-3,4-dihydroxyhexanediamide] | – | – | Ki (purified HIV proteinase): 1.4 nM; EC50 (HIV-1; [3]): 0.4 µg/mL (≈ 0.467 µM)
21 | CNC(=O)[C@@H](NC(=O)[C@H](OCc1ccc(-c2cccs2)cc1)[C@H](O)[C@@H](O)[C@@H](OCc1ccc(-c2cccs2)cc1)C(=O)N[C@H](C(=O)NC)C(C)C)C(C)C [Example 25, N1,N6-di[(1S)-2-methyl-1-(methylcarbamoyl)propyl]-(2R,3R,4R,5R)-2,5-di[4-(2-thienyl)benzyloxy]-3,4-dihydroxyhexanediamide] | – | – | Ki (purified HIV proteinase): 0.17 nM; EC50 (HIV-1; [3]): 0.02 µg/mL (≈ 0.0257 µM)
22 | O=C(N[C@H]1c2ccccc2C[C@H]1O)[C@@H](C[C@@H](O)[C@@H](OCc1ccccc1)C(=O)N[C@H]1c2ccccc2C[C@H]1O)OCc1ccccc1 [Example 26, N1,N6-di[(1S,2R)-2-hydroxy-2,3-dihydro-1H-1-indenyl]-(2R,3R,5R)-2,5-di(benzyloxy)-3-hydroxyhexanediamide] | 0.97 | 0.8 (≈ 1.26 µM) | –
23 | O=C(NCc1c(F)cccc1Cl)[C@H](OCc1ccccc1F)[C@H](O)[C@@H](O)[C@@H](OCc1ccccc1F)C(=O)N[C@H]1c2ccccc2C[C@H]1O [Example 27, N1-[(1S,2R)-2-hydroxy-2,3-dihydro-1H-1-indenyl]-N6-(2-chloro-6-fluorobenzyl)-(2R,3R,4R,5R,)-2,5-di(2-fluorobenzyloxy)-3,4-dihydroxyhexanediamide] | 1.4 | 0.8 (≈ 1.14 µM) | –
24 | CC(C)[C@H](NC(=O)[C@H](OCc1ccccc1)[C@H](O)[C@@H](O)[C@@H](OCc1ccccc1)C(=O)N[C@H]1c2ccccc2C[C@H]1O)C(=O)NCc1ccccn1 [Example 28, N1-[(1S,2R)-2-hydroxy-2,3-dihydro-1H-1-indenyl]-N6-[(1S)-2-methyl-1-([2-pyridylmethyl]carbamoyl)propyl]-(2R,3R,4R,5R,)-2,5-di(benzyloxy)-3,4-dihydroxyhexanediamide] | – | – | EC50 (HIV-1; second part of Table 1, head EC50, MT4 cells, HIV-1, 6 days, XTT): 0.2 µg/mL (≈ 0.281 µM)
